# Test results as given in patent US6310091A, “Fungicidal saponin, CAY-1, and isolation thereof from Capsium species fruit” (The United States of America as represented by the …, priority 2000, dated 2001).
# “And” between values parts separate entries of the source, which are not always exact repeats. Equal values may be shown once. Read-outs that look alike come from different tables or passages of the source.
# What was measured:
# HeLa cells = experiment: Mammalian cytotoxicity, HeLa cells (neutral red); type: cell-based, Human; conditions: at concentrations effective against the fungi and yeast
# Protocol: (§1) 1. HeLa cells. Human epitheloid cervical carcinoma cells (ATCC2.2CCL) were grown in MEM media (Mediatech), supplemented with fetal bovine sera and penicillin (De Lucca et al., Antimicrob. Agents Chemother., 1999, 43:371-373). The cells were rinsed with PBS and harvested using trypsin. Cell count was determined manually using trypan blue and cells were diluted to a final concentration of 2.5×10^5 […]. Aliquots of 100 μl were dispensed per well into a 96-well plate. Cells were incubated overnight (18-24 hours) at 37° C. in a humidified 5% (v/v) CO2 environment. Neutral red dye solution was then added to each well culture and re-incubated for 3 hours. Two-fold serial dilutions of CAY-1 were prepared and aliquoted to final concentrations of 5, 10, 20, 30, and 60 μM (6, 12, 25, 37 and 74 μg/ml, respectively). Negative controls without CAY-1 were included. Cells were exposed to the saponin for 1 hour. Supernatants from each well were transferred into another 96-well plate. The remaining cells were lysed using a 2% Triton solution. Glacial acetic acid was then added to supernatants and lysates, and absorbance was read at A540.
# [1] = Mammalian cytotoxicity, HeLa cells (neutral red); type: cell-based, Human; conditions: human, hela cells
# Protocol: as §1
# Aspergillus flavus = experiment: Time course study against germinating conidia of A. flavus; type: cell-based; conditions: for activity at 2 µM / activity at 3 µM / activity at 4 µM / activity at 5 µM / activity at 7.5 µM / activity at 10 µM: read-out: Percent of Mean Control
# Protocol: 1. Filamentous fungi. Filamentous fungi used in bioassays included Aspergillus flavus, A. fumigatus, A. niger, A. parasiticus and Fusarium oxysporum. The fungicidal properties of CAY-1 for the nongerminated and germinating conidia of these fungi were determined separately as described by De Lucca et al. [Med. Mycol., 36:291-298 (1998)] and De Lucca et al. [Antimicrob. Agents Chemother. 43:371-373 (1999)]. […] Two separate experiments were conducted in each medium (n=8 per medium).
# A suspension of the aforementioned fungi were prepared separately in the appropriate medium. Conidia (10^4 conidia/ml) were used immediately for the nongerminated conidial assays while conidia (10^5 conidia/ml) were incubated for 7.5 hours at 30° C. to obtain germinating conidia. Serial dilutions of CAY-1 were prepared in the appropriate medium (totaling 225 μl) to which was added 25 μl of the conidial suspensions. The control consisted of 225 μl of medium and 25 μl of the conidial suspension. After mixing, the samples were incubated for 30 min (30° C.). Samples were then spread on potato dextrose agar plates which were incubated at 30° C. for 24 hours. Colonies were then enumerated.
# 4. Time course study. The effect of time and concentration on the activity of CAY-1 was determined against the germinating conidia of A. flavus in 1% (w/v) PBD. Bioassays were performed twice as described above (n=8).
# Statistical analyses. ANOVA analyses on ranks for nonparametric data were performed for the bioassays described in this example.
structure (smiles),measurement,setting,value
CC1CCC2(OC1)OC1CC3C4CCC5CC(OC6OC(CO)C(OC7OC(CO)C(O)C(OC8OC(CO)C(O)C(OC9OC(CO)C(O)C(O)C9O)C8O)C7OC7OC(CO)C(O)C(O)C7O)C(O)C6O)C(O)CC5(C)C4CCC3(C)C1C2C (stereo not shown) [CAY-1],lethality to mammalian cells,HeLa cells,not lethal
same,MCC at 1 h,[1],30 µM and 37 µg/mL
same,"cytotoxicity at 1 h, 30 µM",[1],~13%
same,"cytotoxicity at 1 h, 60 µM",[1],~32%
same,Mean No. of Colonies,"Aspergillus flavus; 2.5 min, 1% PDB, 2.0 μM",184.4
same,Mean No. of Colonies,"Aspergillus flavus; 2.5 min, 1% PDB, 3.0 μM",174.3
same,Mean No. of Colonies,"Aspergillus flavus; 2.5 min, 1% PDB, 4.0 μM",170.5
same,Mean No. of Colonies,"Aspergillus flavus; 2.5 min, 1% PDB, 5.0 μM",170.0
same,Mean No. of Colonies,"Aspergillus flavus; 2.5 min, 1% PDB, 7.5 μM",160.8
same,Mean No. of Colonies,"Aspergillus flavus; 2.5 min, 1% PDB, 10.0 μM",154.8
same,Mean No. of Colonies,"Aspergillus flavus; 5.0 min, 1% PDB, 2.0 μM",182.3
same,Mean No. of Colonies,"Aspergillus flavus; 5.0 min, 1% PDB, 3.0 μM",190.1
same,Mean No. of Colonies,"Aspergillus flavus; 5.0 min, 1% PDB, 4.0 μM",171.3
same,Mean No. of Colonies,"Aspergillus flavus; 5.0 min, 1% PDB, 5.0 μM",172.4
same,Mean No. of Colonies,"Aspergillus flavus; 5.0 min, 1% PDB, 7.5 μM",163.3
same,Mean No. of Colonies,"Aspergillus flavus; 5.0 min, 1% PDB, 10.0 μM",89.8
same,Mean No. of Colonies,"Aspergillus flavus; 10.0 min, 1% PDB, 2.0 μM",135.5
same,Mean No. of Colonies,"Aspergillus flavus; 10.0 min, 1% PDB, 3.0 μM",110.8
same,Mean No. of Colonies,"Aspergillus flavus; 10.0 min, 1% PDB, 4.0 μM",119.3
same,Mean No. of Colonies,"Aspergillus flavus; 10.0 min, 1% PDB, 5.0 μM",84.3
same,Mean No. of Colonies,"Aspergillus flavus; 10.0 min, 1% PDB, 7.5 μM",32.8
same,Mean No. of Colonies,"Aspergillus flavus; 10.0 min, 1% PDB, 10.0 μM",24.9
same,Mean No. of Colonies,"Aspergillus flavus; 15 min, 1% PDB, 2.0 μM",126.0
same,Mean No. of Colonies,"Aspergillus flavus; 15 min, 1% PDB, 3.0 μM",131.9
same,Mean No. of Colonies,"Aspergillus flavus; 15 min, 1% PDB, 4.0 μM",109.1
same,Mean No. of Colonies,"Aspergillus flavus; 15 min, 1% PDB, 5.0 μM",77.6
same,Mean No. of Colonies,"Aspergillus flavus; 15 min, 1% PDB, 7.5 μM",28.1
same,Mean No. of Colonies,"Aspergillus flavus; 15 min, 1% PDB, 10.0 μM",4.4
same,Mean No. of Colonies,"Aspergillus flavus; 20 min, 1% PDB, 2.0 μM",227.4
same,Mean No. of Colonies,"Aspergillus flavus; 20 min, 1% PDB, 3.0 μM",200.0
same,Mean No. of Colonies,"Aspergillus flavus; 20 min, 1% PDB, 4.0 μM",156.4
same,Mean No. of Colonies,"Aspergillus flavus; 20 min, 1% PDB, 5.0 μM",95.5
same,Mean No. of Colonies,"Aspergillus flavus; 20 min, 1% PDB, 7.5 μM",19.8
same,Mean No. of Colonies,"Aspergillus flavus; 20 min, 1% PDB, 10.0 μM",7.6
same,Mean No. of Colonies,"Aspergillus flavus; 30 min, 1% PDB, 2.0 μM",139.8
same,Mean No. of Colonies,"Aspergillus flavus; 30 min, 1% PDB, 3.0 μM",115.4
same,Mean No. of Colonies,"Aspergillus flavus; 30 min, 1% PDB, 4.0 μM",84.1
same,Mean No. of Colonies,"Aspergillus flavus; 30 min, 1% PDB, 5.0 μM",54.2
same,Mean No. of Colonies,"Aspergillus flavus; 30 min, 1% PDB, 7.5 μM",17.1
same,Mean No. of Colonies,"Aspergillus flavus; 30 min, 1% PDB, 10.0 μM",13.1
same,activity at 2 µM,"Aspergillus flavus; Aspergillus flavus, 2.5 min, 1% PDB, 2.0 μM",110%
same,activity at 3 µM,"Aspergillus flavus; Aspergillus flavus, 2.5 min, 1% PDB, 3.0 μM",104%
same,activity at 4 µM,"Aspergillus flavus; Aspergillus flavus, 2.5 min, 1% PDB, 4.0 μM",102%
same,activity at 5 µM,"Aspergillus flavus; Aspergillus flavus, 2.5 min, 1% PDB, 5.0 μM",101%
same,activity at 7.5 µM,"Aspergillus flavus; Aspergillus flavus, 2.5 min, 1% PDB, 7.5 μM",95.8%
same,activity at 10 µM,"Aspergillus flavus; Aspergillus flavus, 2.5 min, 1% PDB, 10.0 μM",92.3%
same,minimal effective concentration,"Aspergillus flavus; Aspergillus flavus, 5 min, read-out: lowest concentration with significant lethality",7.5 µM and 9.3 µg/mL
same,activity at 2 µM,"Aspergillus flavus; Aspergillus flavus, 5 min, 1% PDB, 2.0 μM",89.2%
same,activity at 3 µM,"Aspergillus flavus; Aspergillus flavus, 5 min, 1% PDB, 3.0 μM",93%
same,activity at 4 µM,"Aspergillus flavus; Aspergillus flavus, 5 min, 1% PDB, 4.0 μM",83.8%
same,activity at 5 µM,"Aspergillus flavus; Aspergillus flavus, 5 min, 1% PDB, 5.0 μM",84.3%
same,activity at 7.5 µM,"Aspergillus flavus; Aspergillus flavus, 5 min, 1% PDB, 7.5 μM",79.9%
same,activity at 10 µM,"Aspergillus flavus; Aspergillus flavus, 5 min, 1% PDB, 10.0 μM",43.8%
same,activity at 2 µM,"Aspergillus flavus; Aspergillus flavus, 10 min, 1% PDB, 2.0 μM",102%
same,activity at 3 µM,"Aspergillus flavus; Aspergillus flavus, 10 min, 1% PDB, 3.0 μM",83.3%
same,activity at 4 µM,"Aspergillus flavus; Aspergillus flavus, 10 min, 1% PDB, 4.0 μM",89.7%
same,activity at 5 µM,"Aspergillus flavus; Aspergillus flavus, 10 min, 1% PDB, 5.0 μM",63.4%
same,activity at 7.5 µM,"Aspergillus flavus; Aspergillus flavus, 10 min, 1% PDB, 7.5 μM",24.7%
same,activity at 10 µM,"Aspergillus flavus; Aspergillus flavus, 10 min, 1% PDB, 10.0 μM",18.7%
same,minimal effective concentration,"Aspergillus flavus; Aspergillus flavus, 10 min, 10 minutes post-incubation, 1% PDB, p=0.0001, read-out: concentration required for significant activity",5 µM and 6.2 µg/mL
same,IC95,"Aspergillus flavus; Aspergillus flavus, 0.25 h, read-out: LD95",10 µM and 12.4 µg/mL
same,activity at 2 µM,"Aspergillus flavus; Aspergillus flavus, 0.25 h, 15 min, 1% PDB, 2.0 μM",98.4%
same,activity at 3 µM,"Aspergillus flavus; Aspergillus flavus, 0.25 h, 15 min, 1% PDB, 3.0 μM",103%
same,activity at 4 µM,"Aspergillus flavus; Aspergillus flavus, 0.25 h, 15 min, 1% PDB, 4.0 μM",85.2%
same,activity at 5 µM,"Aspergillus flavus; Aspergillus flavus, 0.25 h, 15 min, 1% PDB, 5.0 μM",60.6%
same,activity at 7.5 µM,"Aspergillus flavus; Aspergillus flavus, 0.25 h, 15 min, 1% PDB, 7.5 μM",22%
same,activity at 10 µM,"Aspergillus flavus; Aspergillus flavus, 0.25 h, 15 min, 1% PDB, 10.0 μM",3.4%
same,activity at 2 µM,"Aspergillus flavus; Aspergillus flavus, 20 min, 1% PDB, 2.0 μM",98.9%
same,activity at 3 µM,"Aspergillus flavus; Aspergillus flavus, 20 min, 1% PDB, 3.0 μM",87%
same,activity at 4 µM,"Aspergillus flavus; Aspergillus flavus, 20 min, 1% PDB, 4.0 μM",68%
same,activity at 5 µM,"Aspergillus flavus; Aspergillus flavus, 20 min, 1% PDB, 5.0 μM",41.5%
same,activity at 7.5 µM,"Aspergillus flavus; Aspergillus flavus, 20 min, 1% PDB, 7.5 μM",8.6%
same,activity at 10 µM,"Aspergillus flavus; Aspergillus flavus, 20 min, 1% PDB, 10.0 μM",3.3%
same,activity at 2 µM,"Aspergillus flavus; Aspergillus flavus, 0.5 h, 30 min, 1% PDB, 2.0 μM",90.1%
same,activity at 3 µM,"Aspergillus flavus; Aspergillus flavus, 0.5 h, 30 min, 1% PDB, 3.0 μM",74.4%
same,activity at 4 µM,"Aspergillus flavus; Aspergillus flavus, 0.5 h, 30 min, 1% PDB, 4.0 μM",54.2%
same,activity at 5 µM,"Aspergillus flavus; Aspergillus flavus, 0.5 h, 30 min, 1% PDB, 5.0 μM",34.9%
same,activity at 7.5 µM,"Aspergillus flavus; Aspergillus flavus, 0.5 h, 30 min, 1% PDB, 7.5 μM",11%
same,activity at 10 µM,"Aspergillus flavus; Aspergillus flavus, 0.5 h, 30 min, 1% PDB, 10.0 μM",8.4%
